Experimental data published in PubChem BioAssay (NCI).
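GI50 is the concentration that inhibits growth by half. TGI: total growth inhibition.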

Key:
Assay in all cases: NCI-60 cell line screen, 384-well format
SK-MEL-2 melanoma = test system: SK-MEL-2 melanoma
IGROV1 ovarian = test system: IGROV1 ovarian
SN12C renal = test system: SN12C renal
COLO 205 colon = test system: COLO 205 colon
ACHN renal = test system: ACHN renal
RPMI-8226 leukemia = test system: RPMI-8226 leukemia
OVCAR-5 ovarian = test system: OVCAR-5 ovarian
SNB-19 CNS = test system: SNB-19 CNS
KM12 colon = test system: KM12 colon
NCI/ADR-RES ovarian = test system: NCI/ADR-RES ovarian
NCI-H460 NSCLC = test system: NCI-H460 NSCLC
LOX IMVI melanoma = test system: LOX IMVI melanoma
HCT-15 colon = test system: HCT-15 colon

CCS(=O)(=O)N1CCC(C(C)n2c(C)c(C(=O)NCc3c(OC)cc(C)[nH]c3=O)c3ccccc32)CC1 (stereo unspecified)
GI50 (SK-MEL-2 melanoma): > 100 µM
TGI (SK-MEL-2 melanoma): > 100 µM
GI50 (IGROV1 ovarian): > 100 µM
TGI (IGROV1 ovarian): > 100 µM
GI50 (SN12C renal): > 100 µM
TGI (SN12C renal): > 100 µM
GI50 (COLO 205 colon): > 100 µM
TGI (COLO 205 colon): > 100 µM
GI50 (ACHN renal): > 100 µM
TGI (ACHN renal): > 100 µM
GI50 (RPMI-8226 leukemia): 7.49 µM
TGI (RPMI-8226 leukemia): > 86.4 µM
GI50 (OVCAR-5 ovarian): > 100 µM
TGI (OVCAR-5 ovarian): > 100 µM
GI50 (SNB-19 CNS): > 100 µM
TGI (SNB-19 CNS): > 100 µM
GI50 (KM12 colon): > 100 µM
TGI (KM12 colon): > 100 µM
GI50 (NCI/ADR-RES ovarian): > 100 µM
TGI (NCI/ADR-RES ovarian): > 100 µM
GI50 (NCI-H460 NSCLC): > 100 µM
TGI (NCI-H460 NSCLC): > 100 µM
GI50 (LOX IMVI melanoma): > 78.6 µM
TGI (LOX IMVI melanoma): > 100 µM
GI50 (HCT-15 colon): > 100 µM
TGI (HCT-15 colon): > 100 µM
